Here are results for 23 compounds from PubChem BioAssay AID248 (DTP/NCI, 2004).

In the assay the test system is L1210 leukemia ip in BDF1 mice, survival T/C. Put plainly: NCI In Vivo Anticancer Drug Screen. Data for tumor model L1210 Leukemia (intraperitoneal) in B6D2F1 (BDF1) mice. The settings on record: endpoint: mean survival time, higher = longer survival. The method in brief:
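Tumor was transplanted into mice, which were then dosed with test compound or vehicle alone. Survival was recorded for each group, and the treated figure was expressed relative to the control figure.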

The mark [1] stands for this setting: dose: 100.0 mg/kg/injection, schedule: Q04DX003 (ip), vehicle: Klucel (hydroxypropylcellulose) (HPC).
Where [2] appears, read: dose: 200.0 mg/kg/injection, schedule: Q04DX003 (ip), vehicle: Klucel (hydroxypropylcellulose) (HPC).
Setting [3] is: dose: 400.0 mg/kg/injection, schedule: Q04DX003 (ip), vehicle: Klucel (hydroxypropylcellulose) (HPC).
[4] abbreviates: dose: 100.0 mg/kg/injection, schedule: Q04DX002 (ip), vehicle: Klucel (hydroxypropylcellulose) (HPC).
Where [5] appears, read: dose: 200.0 mg/kg/injection, schedule: Q04DX002 (ip), vehicle: Klucel (hydroxypropylcellulose) (HPC).
The mark [6] stands for this setting: dose: 400.0 mg/kg/injection, schedule: Q04DX002 (ip), vehicle: Klucel (hydroxypropylcellulose) (HPC).
The mark [7] stands for this setting: dose: 75.0 mg/kg/injection, schedule: Q01DX001 (ip), vehicle: saline.
The mark [8] stands for this setting: dose: 150.0 mg/kg/injection, schedule: Q01DX001 (ip), vehicle: saline.
Setting [9] is: dose: 300.0 mg/kg/injection, schedule: Q01DX001 (ip), vehicle: saline.
Where [10] appears, read: dose: 50.0 mg/kg/injection, schedule: Q01DX001 (ip), vehicle: saline.
[11] abbreviates: dose: 100.0 mg/kg/injection, schedule: Q01DX001 (ip), vehicle: saline.
The mark [12] stands for this setting: dose: 200.0 mg/kg/injection, schedule: Q01DX001 (ip), vehicle: saline.
The mark [13] stands for this setting: dose: 400.0 mg/kg/injection, schedule: Q01DX001 (ip), vehicle: saline.
Setting [14] is: dose: 50.0 mg/kg/injection, schedule: Q01DX009 (ip), vehicle: saline with Tween-80.
Where [15] appears, read: dose: 100.0 mg/kg/injection, schedule: Q01DX009 (ip), vehicle: saline with Tween-80.
[16] abbreviates: dose: 12.5 mg/kg/injection, schedule: Q01DX001 (ip), vehicle: saline.
The mark [17] stands for this setting: dose: 25.0 mg/kg/injection, schedule: Q01DX001 (ip), vehicle: saline.

Values joined by “and” are separate entries in the source; they are usually repeats but may differ in a detail not shown here. Equal entries are not always repeated. Toxic doses and inconclusive results are not listed. Square brackets hold non-standard residues; d marks the D form. Peptide text beside a SMILES is read from it. Ac5c = NC1(C(=O)O)CCCC1

Take `CC(=O)OC1CCC2(C)C3CCC4(C)C(OC(=O)c5ccccc5)CCC4C3C3C(=O)OC32C1` (stereo not drawn): the T/C reads like this: under setting [1], 95 % of control; under setting [2], 95 % of control; under setting [3], 95 % of control.

In the case of `CC1(C)CC(=O)C2=C(C1)Nc1ccccc1NC2c1ccc([N+](=O)[O-])cc1` (stereo not drawn), the T/C is, setting by setting: under setting [4], 103 % of control; under setting [5], 109 % of control; under setting [6], 106 % of control.

With `COc1cc(OC)c(N=Nc2sc(N)nc2C)cc1Cl`, the T/C was 92 % of control under setting [7], 97 % of control under setting [8] and 94 % of control under setting [9].

Take `CS(=O)(=O)OCCN(CCOS(C)(=O)=O)c1ccc([N+](=O)[O-])c(C(F)(F)F)c1`: the T/C was 94 % of control under setting [10], 96 % of control under setting [11], 96 % of control under setting [12] and 94 % of control under setting [13].

Turning to `CC1CCCCN1C(CC(=O)c1ccccc1)C(=O)c1ccccc1` (stereo not drawn), the T/C reads like this: under setting [10], 97 % of control; under setting [11], 95 % of control; under setting [12], 101 % of control; under setting [13], 101 % of control.

Take `NC1(C(=O)NCC(=O)O)CCCC1` (H-[Ac5c]-Gly-OH): the T/C is 104 % of control (dose: 100.0 mg/kg/injection, schedule: Q04DX003 (ip), vehicle: saline) and 100 % of control (dose: 200.0 mg/kg/injection, schedule: Q04DX003 (ip), vehicle: saline).

For the compound `O=C(OC1CSC(OC(=O)c2ccccc2)CS1)c1ccccc1` (stereo not drawn), the T/C was 95 % of control (dose: 100.0 mg/kg/injection, schedule: Q04DX002 (ip), vehicle: saline with Tween-80); 95 % of control (dose: 200.0 mg/kg/injection, schedule: Q04DX002 (ip), vehicle: saline with Tween-80); 91 % of control (dose: 400.0 mg/kg/injection, schedule: Q04DX002 (ip), vehicle: saline with Tween-80).

Regarding `Nc1nc(N)nc(-c2ccccc2NC(=O)c2ccccc2[N+](=O)[O-])n1`, the T/C is 91 % of control (dose: 100.0 mg/kg/injection, schedule: Q01DX009 (ip), vehicle: Klucel (hydroxypropylcellulose) (HPC)); 101 % of control under setting [1]; 96 % of control (dose: 200.0 mg/kg/injection, schedule: Q01DX009 (ip), vehicle: Klucel (hydroxypropylcellulose) (HPC)); 105 % of control under setting [2]; 90 % of control (dose: 400.0 mg/kg/injection, schedule: Q01DX009 (ip), vehicle: Klucel (hydroxypropylcellulose) (HPC)); 100 % of control under setting [3].

In the case of `C=CC[n+]1ccccc1C`, the T/C is 91 % of control under setting [14] and 91 % of control under setting [15].

Consider `CCCCSc1nc(NC(C)C)nc(NC(C)C)n1`, for which the T/C was 118 % of control (dose: 100.0 mg/kg/injection, schedule: Q04DX002 (sc), vehicle: olive oil, sesame oil, peanut oil); 115 % of control (dose: 200.0 mg/kg/injection, schedule: Q04DX002 (sc), vehicle: olive oil, sesame oil, peanut oil); 101 % of control (dose: 400.0 mg/kg/injection, schedule: Q04DX002 (sc), vehicle: olive oil, sesame oil, peanut oil).

Take `NC(CCl)C(=O)O` (stereo not drawn): the T/C was 103 % of control (dose: 6.25 mg/kg/injection, schedule: Q01DX001 (ip), vehicle: saline); 101 % of control under setting [16]; 103 % of control under setting [17]; 97 % of control under setting [10]; 92 % of control under setting [11]; 90 % of control under setting [12].

In the case of `NC(CSS(=O)(=O)O)=NCc1ccccn1`, the T/C is, setting by setting: under setting [4], 95 % of control; under setting [5], 101 % of control; under setting [6], 98 % of control.

On to `CC(C)CCCC(C)C1CCC2C3CC=C4CC(OC(=O)CCl)CCC4(C)C3CCC12C` (stereo not drawn), for which the T/C under setting [10] is 101 % of control, the T/C under setting [11] was 95 % of control, the T/C under setting [12] was 95 % of control and the T/C under setting [13] is 101 % of control.

With `CCOC(=O)c1cc(Cl)cc(Cl)c1N/N=[N+](\C)[O-]`, the T/C was 117 % of control under setting [14]; 87 % of control under setting [15]; 93 % of control (dose: 200.0 mg/kg/injection, schedule: Q01DX009 (ip), vehicle: saline with Tween-80).

Regarding `CCCCCCc1cc(N=Nc2ccc(S(N)(=O)=O)cc2)c(O)cc1O`, the T/C is 97 % of control under setting [11], 102 % of control under setting [12] and 96 % of control under setting [13].

Regarding `CCOC(=O)c1ccc[n+](Cc2ccccc2)c1`, the T/C is 101 % of control under setting [7], 106 % of control under setting [8] and 98 % of control under setting [9].

With `ClCc1cc(Cl)c(Cl)cc1Cl`, the T/C is 93 % of control (dose: 25.0 mg/kg/injection, schedule: Q01DX009 (ip), vehicle: acetone); 92 % of control (dose: 50.0 mg/kg/injection, schedule: Q01DX009 (ip), vehicle: acetone); 90 % of control (dose: 100.0 mg/kg/injection, schedule: Q01DX009 (ip), vehicle: acetone); 100 % of control (dose: 100.0 mg/kg/injection, schedule: Q04DX003 (ip), vehicle: acetone); 95 % of control (dose: 150.0 mg/kg/injection, schedule: Q01DX009 (ip), vehicle: acetone).

For the compound `CCc1ccccc1NC(=O)Oc1cccc(C(F)(F)F)c1`, the T/C reads like this: (dose: 100.0 mg/kg/injection, schedule: Q01DX009 (ip), vehicle: saline) 104 % of control; (dose: 200.0 mg/kg/injection, schedule: Q01DX009 (ip), vehicle: saline) 94 % of control; (dose: 400.0 mg/kg/injection, schedule: Q01DX009 (ip), vehicle: saline) 103 % of control.

Turning to `Clc1[nH]cnc1Br`, the T/C reads like this: (dose: 100.0 mg/kg/injection, schedule: Q04DX003 (ip), vehicle: saline with Tween-80) 107 % of control; (dose: 200.0 mg/kg/injection, schedule: Q04DX003 (ip), vehicle: saline with Tween-80) 93 % of control; (dose: 400.0 mg/kg/injection, schedule: Q04DX003 (ip), vehicle: saline with Tween-80) 104 % of control.

Take `CCOC(=O)CC(c1ccccc1)C(C(=O)OCC)C(=O)OCC` (stereo not drawn): the T/C reads like this: under setting [11], 106 % of control; under setting [12], 103 % of control; under setting [13], 103 % of control.

Take `Cc1cc(C)c(S(=O)(=O)N=[N+]=[N-])c(C)c1`: the T/C is 101 % of control under setting [11], 103 % of control under setting [12] and 97 % of control under setting [13].

Turning to `CS(=O)(=O)Nc1ccc(Nc2c3ccccc3nc3ccccc23)cc1`, the T/C (dose: 10.0 mg/kg/injection, schedule: Q01DX009 (sc), vehicle: saline) is 108 % of control; the T/C under setting [16] is 101 % of control; the T/C (dose: 20.0 mg/kg/injection, schedule: Q01DX009 (ip), vehicle: saline) is 161 % of control; the T/C (dose: 20.0 mg/kg/injection, schedule: Q01DX009 (sc), vehicle: saline) was 116 % of control; the T/C under setting [17] was 119 % of control; the T/C (dose: 40.0 mg/kg/injection, schedule: Q01DX009 (ip), vehicle: saline) is 107 % of control. For the same compound, the T/C was 104 % of control under setting [10]; 97 % of control (dose: 117.0 mg/kg/injection, schedule: Q01DX009 (ip), vehicle: carboxymethylcellulose (CMC)); 151 % of control (dose: 176.0 mg/kg/injection, schedule: Q01DX001 (ip), vehicle: carboxymethylcellulose (CMC)); 100 % of control (dose: 176.0 mg/kg/injection, schedule: Q01DX009 (ip), vehicle: carboxymethylcellulose (CMC)); 156 % of control (dose: 240.0 mg/kg/injection, schedule: Q04DX003 (ip), vehicle: Klucel (hydroxypropylcellulose) (HPC)); 161 % of control (dose: 264.0 mg/kg/injection, schedule: Q01DX001 (ip), vehicle: carboxymethylcellulose (CMC)). Further, the T/C (dose: 266.0 mg/kg/injection, schedule: Q01DX001 (ip), vehicle: carboxymethylcellulose (CMC)) was 158 % of control; the T/C (dose: 400.0 mg/kg/injection, schedule: Q01DX001 (ip), vehicle: carboxymethylcellulose (CMC)) was 150 % of control; the T/C (dose: 600.0 mg/kg/injection, schedule: Q01DX001 (ip), vehicle: carboxymethylcellulose (CMC)) was 179 % of control and 253 % of control.

Consider `COc1ccc2c3c1OC1C(OC(C)=O)=CCC4C(C2)N(C)CCC314` (stereo not drawn), for which the T/C under setting [11] was 93 % of control.
